According to the supplement of paper PMC6965134:
± gives the standard deviation of the averaged measurements.

Test: TIMS collisional cross section (CCS, N2) of the lipid ion; higher = larger ion cross section
Settings: ionization mode: positive, one isomer drawn

Row | Compound | TIMS collisional cross section (sample type: HeLa) | TIMS collisional cross section (sample type: Liver) | TIMS collisional cross section (sample type: plasma)
1 | CCCCCCC/C=C\CCCCCCCC(=O)O[C@@H](COC(=O)CCCCCCC/C=C\CCCCCCCC)COC(=O)CCCCCCCCCCCCCCC [TG 16:0_17:1_18:1] (ion (formula + adduct): [C54H100O6+NH4] 1+) | 319.4 Å² | 319.35 ± 0.21 Å² | 319.3 Å²
2 | CCCCCCCC/C=C\CCCCCCCCCC(=O)OC[C@@H](O)COP(=O)(O)OCCN [LPE 20:1] (ion (formula + adduct): [C25H50NO7P+H] 1+) |  | 223.5 Å² | 223.3 Å²
3 | CC/C=C\C/C=C\C/C=C\C/C=C\C/C=C\CCCCCC(=O)OC[C@@H](COC(=O)CCCCCCCCCCCCCCC)OC(=O)CCCCCCC/C=C\CCCCCC [TG 16:0_16:1_22:5] (ion (formula + adduct): [C57H98O6+NH4] 1+) | 321.9 Å² |  | 
4 | CCCCCCCCCCCCCCCCC(=O)O[C@@H](CO)COC(=O)CCCCCCCCCCCCCCC [DG 16:0_17:0_0:0] (ion (formula + adduct): [C36H70O5+NH4] 1+) | 262.1 ± 0.42 Å² |  | 
5 | CCCCCCCCCCCCCCCCCCCCCC(=O)OC[C@@H](COC(=O)CCCCCCCCCCCCCCC)OC(=O)CCCCCCCCCCCCCCCCCCC [TG 16:0_20:0_22:0] (ion (formula + adduct): [C61H118O6+NH4] 1+) | 344.3 Å² |  | 343.5 Å²
6 | CC/C=C\C/C=C\C/C=C\C/C=C\C/C=C\C/C=C\CCC(=O)OC[C@@H](COC(=O)CCCCCCC/C=C\CCCCCCCC)OC(=O)CCCCCCC/C=C\C/C=C\CCCCC [TG 18:1_18:2_22:6] (ion (formula + adduct): [C61H100O6+NH4] 1+) |  |  | 329 Å²
7 | CC/C=C\C/C=C\C/C=C\C/C=C\C/C=C\CCCC(=O)O[C@H](CO/C=C\CCCCCCCCCCCCCCCCCC)COP(=O)([O-])OCC[N+](C)(C)C [PC P- 20:0@_20:5] (ion (formula + adduct): [C48H86NO7P+H] 1+) | 299.9 Å² |  | 
8 | CCCCCC/C=C\CCCCCCCC(=O)O[C@@H](COC(=O)CCCCCCC/C=C\CCCCCCCC)COC(=O)CCCCCCCCCCC [TG 12:0_16:1_18:1] (ion (formula + adduct): [C49H90O6+NH4] 1+) |  |  | 303.25 ± 0.35 Å²
9 | CC/C=C\C/C=C\C/C=C\C/C=C\C/C=C\C/C=C\CCC(=O)O[C@H](COC(=O)CCCCCCCCCCCCCCCCC)COP(=O)(O)OCCN [PE 18:0_22:6] (ion (formula + adduct): [C45H78NO8P+H] 1+) | 285.5 Å² | 285.6 Å² | 
10 | CCCCCCCCC/C=C\CCCCCCCC(=O)O[C@H](CO/C=C\CCCCCCCCCCCCCC)COP(=O)(O)OCCN [PE P- 16:0@_19:1] (ion (formula + adduct): [C40H78NO7P+H] 1+) | 277.5 Å² |  | 
11 | CCCCC/C=C\C/C=C\C/C=C\C/C=C\CCCC(=O)OC[C@@H](O)COP(=O)(O)OC[C@H](N)C(=O)O [LPS 20:4] (ion (formula + adduct): [C26H44NO9P+H] 1+) |  | 221.9 Å² | 
12 | CC/C=C\C/C=C\C/C=C\C/C=C\C/C=C\C/C=C\CCC(=O)OC[C@@H](COC(=O)CCCCCCCCCCCCCCC)OC(=O)CCCCCCCCCCCCCCCCCCCCC [TG 16:0_22:0_22:6] (ion (formula + adduct): [C63H110O6+NH4] 1+) |  | 340.7 Å² | 
13 | C(OC(=O)CCCCCCCCCCCCCCC)[C@]([H])(OC(CCCCCCCCCCCCCCC)=O)COC(CCCCCCCCCCCCCCC)=O [TG 16:0_16:0_16:0] (ion (formula + adduct): [C51H98O6+NH4] 1+) |  |  | 314.45 ± 0.21 Å²
14 | CCCCC/C=C\C/C=C\C/C=C\C/C=C\CCCCCC(=O)O[C@H](COC(=O)CCCCCCCCCCCCCCCCC)COP(=O)([O-])OCC[N+](C)(C)C [PC 18:0@_22:4] (ion (formula + adduct): [C48H88NO8P+H] 1+) |  |  | 300.7 Å²
15 | CCCCC/C=C\C/C=C\C/C=C\C/C=C\CCCC(=O)O[C@H](COC(=O)CCCCCC/C=C\C/C=C\C/C=C\CCCCC)COP(=O)(O)OCCN [PE 20:3_20:4@] (ion (formula + adduct): [C45H76NO8P+H] 1+) |  | 280.9 Å² | 
16 | CC(C)(O)CCC(=O)[C@](C)(O)[C@H]1[C@H](O)C[C@@]2(C)[C@@H]3CC=C4[C@@H](C[C@@H](O)[C@@H](O)C4(C)C)[C@]3(C)C(=O)C[C@]12C [Cucurbitacin P] (ion (formula + adduct): [C30H48O7+H] 1+) |  | 231.3 Å² | 

Row | Compound | TIMS collisional cross section (sample type: HeLa) | TIMS collisional cross section (sample type: Liver) | TIMS collisional cross section (sample type: plasma)
17 | CCCCCC/C=C\CCCCCCCC(=O)O[C@H](COC(=O)CCCCCCCCCCCCCCC)COP(=O)([O-])OCC[N+](C)(C)C [PC 16:0_16:1] (ion (formula + adduct): [C40H78NO8P+H] 1+) | 282.63 ± 1.3 Å² | 282.3 Å² | 282.3 Å²
18 | CCCCCCCC/C=C\CCCCCCCC(=O)O[C@H](CO/C=C\CCCCCCCCCCCCCC)COP(=O)(O)OCCN [PE P- 16:0@_18:1] (ion (formula + adduct): [C39H76NO7P+H] 1+) | 274 Å² | 274.1 Å² | 274.1 Å²
19 | CCCCC/C=C\C/C=C\CCCCCCCCCC(=O)OC[C@@H](COC(=O)CCCCCCCCCCCCC)OC(=O)CCCCCCC/C=C\CCCCCCCC [TG 14:0_18:1_20:2] (ion (formula + adduct): [C55H100O6+NH4] 1+) | 320 Å² | 320.5 Å² | 
20 | CCCCC/C=C\C/C=C\C/C=C\C/C=C\C/C=C\CCC(=O)O[C@H](COC(=O)CCCCCCCCCCCCCCC)COP(=O)([O-])OCC[N+](C)(C)C [PC 16:0_22:5] (ion (formula + adduct): [C46H82NO8P+H] 1+) |  |  | 293.3 Å²
21 | CCCCC/C=C\C/C=C\C/C=C\CCCCCCC(=O)OC[C@@H](COC(=O)CCCCCCC/C=C\CCCCCCCC)OC(=O)CCCCCCC/C=C\CCCCCCCC [TG 18:1_18:1_20:3] (ion (formula + adduct): [C59H104O6+NH4] 1+) |  | 330.2 Å² | 
22 | CC/C=C\C/C=C\C/C=C\C/C=C\C/C=C\CCCC(=O)O[C@H](COC(=O)CCCCCCC/C=C\C/C=C\CCCCC)COP(=O)(O)OCCN [PE 18:2@_20:5] (ion (formula + adduct): [C43H72NO8P+H] 1+) |  | 277.2 Å² | 
23 | CCCCC/C=C\C/C=C\C/C=C\C/C=C\CCCC(=O)OC[C@@H](COC(=O)CCCCCCCCCCCCCCC)OC(=O)CCCCCCC/C=C\CCCCCCC [TG 16:0_17:1_20:4] (ion (formula + adduct): [C56H98O6+NH4] 1+) | 321.4 Å² |  | 
24 | CCCCC/C=C\C/C=C\CCCCCCCC(=O)O[C@H](CO/C=C\CCCCCCCCCCCCCC)COP(=O)(O)OCCN [PE P- 16:0@_18:2] (ion (formula + adduct): [C39H74NO7P+H] 1+) | 270.7 Å² | 270.5 Å² | 270.6 Å²
25 | CC/C=C\C/C=C\C/C=C\C/C=C\C/C=C\C/C=C\CCC(=O)OC[C@@H](COC(=O)CCCCCCCCCCCCCCC)OC(=O)CCCCCCC/C=C\C/C=C\CCCCC [TG 16:0_18:2_22:6] (ion (formula + adduct): [C59H98O6+NH4] 1+) |  | 325.3 Å² | 
26 | CC/C=C\C/C=C\C/C=C\C/C=C\C/C=C\C/C=C\CCC(=O)OC[C@@H](O)COP(=O)([O-])OCC[N+](C)(C)C [LPC 22:6_0:0] (ion (formula + adduct): [C30H50NO7P+H] 1+) |  |  | 233.1 Å²
27 | CCCCC/C=C\C/C=C\C/C=C\C/C=C\CCCC(=O)OC[C@H](COP(=O)(O)OCCN)OC(=O)CCCCCCCCCCCCCCCCCCC [PE 20:4_20:0] (ion (formula + adduct): [C45H82NO8P+H] 1+) |  | 290.4 Å² | 
28 | CCCCCCCCCCCCCCCC(=O)OC[C@@H](COC(=O)CCCCCCCCCCCC)OC(=O)CCCCCCCCCCCCCC [TG 13:0_15:0_16:0] (ion (formula + adduct): [C47H90O6+NH4] 1+) | 301.7 Å² | 301.4 Å² | 
29 | CCCCCCCC/C=C\CCCCCCCCCCCC(=O)OC[C@@H](COC(=O)CCCCCCC/C=C\CCCCCCCC)OC(=O)CCCCCCCCC/C=C\CCCCCCCC [TG 18:1_20:1_22:1] (ion (formula + adduct): [C63H116O6+NH4] 1+) |  | 342.9 Å² | 343 Å²
30 | CCCCCCCCCCCCCCCCCC(=O)OCC(CO)OC(=O)CCCCCCCCCCCCCCCCC (centres undefined) [DG 18:0_18:0_0:0] (ion (formula + adduct): [C39H76O5+NH4] 1+) | 272.2 Å² |  | 273.4 Å²
31 | CCCCCCCCCCCCC/C=C/C=C/C(=O)OC[C@@H](O)COP(=O)([O-])OCC[N+](C)(C)C [LPC 18:2_0:0] (ion (formula + adduct): [C26H50NO7P+H] 1+) | 227.3 ± 1.3 Å² | 227.6 ± 1.3 Å² | 226.96 ± 1.1 Å²
32 | CC/C=C\C/C=C\C/C=C\CCCCCCCC(=O)OC[C@@H](COC(=O)CCCCCCCCCCCCCCC)OC(=O)CCCCCCC/C=C\C/C=C\CCCCC [TG 16:0_18:2_18:3] (ion (formula + adduct): [C55H96O6+NH4] 1+) |  |  | 315.8 Å²
